In PubChem BioAssay AID1963826 (Molecular Pharmacology Branch, DTP, NCI, 2024):

Tested on: 926638-142-R-J1-PDC complex spheroid viability
Assay: Anticancer human tumor 926638-142-R-J1-PDC patient-derived endometrial carcinoma cell line growth inhibition [POLQ]
Details: for IC50: curve of first compound; for viability, T/C: stronger effect = lower value
Procedure, shortened: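 Growth inhibition in 3D: complex spheroids (tumor PDC, HUVEC, MSC) treated with POLQ inhibitor combinations; where Cmax unknown, highest tested concentration 10 microM, except SN-38 at 1 microM.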

[1] = second compound 0.0316 µM, first compound 0.00316 µM
[2] = second compound 0.0316 µM, first compound 0.01 µM
[3] = second compound 0.0316 µM, first compound 0.0316 µM
[4] = second compound 0.0316 µM, first compound 0.1 µM
[5] = second compound 0.0316 µM, first compound 0.316 µM
[6] = second compound 0.0316 µM, first compound 1 µM
[7] = second compound 0.1 µM, first compound 0.00316 µM
[8] = second compound 0.1 µM, first compound 0.01 µM
[9] = second compound 0.1 µM, first compound 0.0316 µM
[10] = second compound 0.1 µM, first compound 0.1 µM
[11] = second compound 0.1 µM, first compound 0.316 µM
[12] = second compound 0.1 µM, first compound 1 µM
[13] = second compound 0.316 µM, first compound 0.00316 µM
[14] = second compound 0.316 µM, first compound 0.01 µM
[15] = second compound 0.316 µM, first compound 0.0316 µM
[16] = second compound 0.316 µM, first compound 0.1 µM
[17] = second compound 0.316 µM, first compound 0.316 µM
[18] = second compound 0.316 µM, first compound 1 µM
[19] = second compound 1 µM, first compound 0.00316 µM
[20] = second compound 1 µM, first compound 0.01 µM
[21] = second compound 1 µM, first compound 0.0316 µM
[22] = second compound 1 µM, first compound 0.1 µM
[23] = second compound 1 µM, first compound 0.316 µM
[24] = second compound 1 µM, first compound 1 µM
[25] = second compound 3.16 µM, first compound 0.00316 µM
[26] = second compound 3.16 µM, first compound 0.01 µM
[27] = second compound 3.16 µM, first compound 0.0316 µM
[28] = second compound 3.16 µM, first compound 0.1 µM
[29] = second compound 3.16 µM, first compound 0.316 µM
[30] = second compound 3.16 µM, first compound 1 µM
[31] = second compound 10 µM, first compound 0.00316 µM
[32] = second compound 10 µM, first compound 0.01 µM
[33] = second compound 10 µM, first compound 0.0316 µM
[34] = second compound 10 µM, first compound 0.1 µM
[35] = second compound 10 µM, first compound 0.316 µM
[36] = second compound 10 µM, first compound 1 µM
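Also: spheroids exposed to drugs for one week before readout.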
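For viability, T/C in this document: percent viability relative to DMSO vehicle control wells set as 100%.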

C=CCn1c(=O)c2cnc(Nc3ccc(N4CCN(C)CC4)cc3)nc2n1-c1cccc(C(C)(C)O)n1 + Cc1cccc(N(C)C(=O)C2C(O)CCN2c2nc(C)cc(C(F)(F)F)c2C#N)c1
IC50 (second compound 0.0316 µM): 390 nM | IC50 (second compound 0.1 µM): 714 nM | IC50 (second compound 0.316 µM): 321 nM | IC50 (second compound 1 µM): 627 nM | IC50 (second compound 3.16 µM): 374 nM | IC50 (second compound 10 µM): 276 nM | viability, T/C [1]: 92% | viability, T/C [2]: 80.1% | viability, T/C [3]: 90% | viability, T/C [4]: 64.9% | viability, T/C [5]: 55.6% | viability, T/C [6]: 34% | viability, T/C [7]: 106% | viability, T/C [8]: 98.3% | viability, T/C [9]: 88.7% | viability, T/C [10]: 77.2% | viability, T/C [11]: 57.8% | viability, T/C [12]: 46.6% | viability, T/C [13]: 102% | viability, T/C [14]: 94.4% | viability, T/C [15]: 71.6% | viability, T/C [16]: 61.2% | viability, T/C [17]: 54.7% | viability, T/C [18]: 37% | viability, T/C [19]: 109% | viability, T/C [20]: 91.5% | viability, T/C [21]: 76.1% | viability, T/C [22]: 81.1% | viability, T/C [23]: 60.8% | viability, T/C [24]: 40.8% | viability, T/C [25]: 87.7% | viability, T/C [26]: 99.6% | viability, T/C [27]: 81.2% | viability, T/C [28]: 78.8% | viability, T/C [29]: 51.1% | viability, T/C [30]: 36.9% | viability, T/C [31]: 79.5% | viability, T/C [32]: 78.9% | viability, T/C [33]: 72.8% | viability, T/C [34]: 76.2% | viability, T/C [35]: 46.5% | viability, T/C [36]: 37.7%

COc1cccc(OCCCN)c1-c1cc(Nc2cnc(C#N)cn2)n[nH]1 + Cc1cccc(N(C)C(=O)C2C(O)CCN2c2nc(C)cc(C(F)(F)F)c2C#N)c1
IC50 (second compound 0.0316 µM): 56.8 nM | IC50 (second compound 0.1 µM): 59.4 nM | IC50 (second compound 0.316 µM): 47.7 nM | IC50 (second compound 1 µM): 50.4 nM | IC50 (second compound 3.16 µM): 108 nM | IC50 (second compound 10 µM): 29 nM | viability, T/C [1]: 99.5% | viability, T/C [2]: 72.9% | viability, T/C [3]: 51.1% | viability, T/C [4]: 49.4% | viability, T/C [5]: 39.5% | viability, T/C [6]: 36% | viability, T/C [7]: 102% | viability, T/C [8]: 81.8% | viability, T/C [9]: 54.2% | viability, T/C [10]: 47.2% | viability, T/C [11]: 46.1% | viability, T/C [12]: 37.8% | viability, T/C [13]: 99.3% | viability, T/C [14]: 61.6% | viability, T/C [15]: 59.7% | viability, T/C [16]: 43.6% | viability, T/C [17]: 44.1% | viability, T/C [18]: 30.4% | viability, T/C [19]: 96.6% | viability, T/C [20]: 79.2% | viability, T/C [21]: 53.5% | viability, T/C [22]: 43.3% | viability, T/C [23]: 49.2% | viability, T/C [24]: 34.3% | viability, T/C [25]: 89.4% | viability, T/C [26]: 65.9% | viability, T/C [27]: 62.1% | viability, T/C [28]: 49.2% | viability, T/C [29]: 47.5% | viability, T/C [30]: 33.7% | viability, T/C [31]: 83.5% | viability, T/C [32]: 80.9% | viability, T/C [33]: 47% | viability, T/C [34]: 40.2% | viability, T/C [35]: 38.6% | viability, T/C [36]: 27.3%
